Test results published in patent publication US7648979B2, “5-amido-(1H-indol-2-yl)-piperazin-1-yl-methanone derivatives” (Hoffmann-La Roche Inc., priority 2007, dated 2010).

The compounds below were run against histamine 3 receptor (H3R) (Homo sapiens, UniProt Q9Y5N1) (assay: Binding Assay with 3H-(R)α-methylhistamine (competition binding, membranes of human H3R-CHO cell line)). Conditions: competition with 3H(R)α-methylhistamine (1 nM), Ki calculated from IC50 by Cheng-Prusoff.
Procedure: Binding Assay with ^3H-(R)α-methylhistamine
Saturation binding experiments were performed using HR3-CHO membranes prepared as described in Takahashi, K, Tokita, S., Kotani, H. (2003) J. Pharmacol. Exp. Therapeutics 307, 213-218.
An appropriate amount of membrane (60 to 80 μg protein/well) was incubated with increasing concentrations of ^3H(R)α-Methylhistamine di-hydrochloride (0.10 to 10 nM). Non specific binding was determined using a 200 fold excess of cold (R)α-Methylhistamine dihydrobromide (500 nM final concentration). The incubation was carried out at room temperature (in deep-well plates shaking for three hours). The final volume in each well was 250 μl. The incubation was followed by rapid filtration on GF/B filters (pre-soaked with 100 μl of 0.5% PEI in Tris 50 mM shaking at 200 rpm for two hours). The filtration was made using a cell-harvester and the filter plates were then washed five times with ice cold washing buffer containing 0.5 M NaCl. After harvesting, the plates were dried at 55° C. for 60 min, then we added scintillation fluid (Microscint 40, 40 microl in each well) and the amount of radioactivity on the filter was determined in Packard top-counter after shaking the plates for two hours at 200 rpm at room temperature.
Binding Buffer: 50 mM Tris-HCl pH 7.4 and 5 mM MgCl2×6H2O pH 7.4. Washing Buffer: 50 mM Tris-HCl pH 7.4 and 5 mM MgCl2×6H2O and 0.5 M NaCl pH 7.4.
Indirect measurement of affinity of H3R inverse agonists: twelve increasing concentrations (ranging from 10 μM to 0.3 nM) of the selected compounds were always tested in competition binding experiments using membrane of the human H3R—CHO cell line. […]
All compounds were tested at a single concentration in duplicate. […] Ki's were calculated from IC50 based on Cheng-Prusoff equation (Cheng, Y, Prusoff, W H (1973) Biochem Pharmacol 22, 3099-3108): Ki=IC50/[1+D/Kd] wherein D is the concentration of the radioligand and Kd is the binding constant for the radioligand binding to the receptor under the conditions used in the competition experiment.

Sequence of histamine 3 receptor (H3R) (Q9Y5N1 whole entry): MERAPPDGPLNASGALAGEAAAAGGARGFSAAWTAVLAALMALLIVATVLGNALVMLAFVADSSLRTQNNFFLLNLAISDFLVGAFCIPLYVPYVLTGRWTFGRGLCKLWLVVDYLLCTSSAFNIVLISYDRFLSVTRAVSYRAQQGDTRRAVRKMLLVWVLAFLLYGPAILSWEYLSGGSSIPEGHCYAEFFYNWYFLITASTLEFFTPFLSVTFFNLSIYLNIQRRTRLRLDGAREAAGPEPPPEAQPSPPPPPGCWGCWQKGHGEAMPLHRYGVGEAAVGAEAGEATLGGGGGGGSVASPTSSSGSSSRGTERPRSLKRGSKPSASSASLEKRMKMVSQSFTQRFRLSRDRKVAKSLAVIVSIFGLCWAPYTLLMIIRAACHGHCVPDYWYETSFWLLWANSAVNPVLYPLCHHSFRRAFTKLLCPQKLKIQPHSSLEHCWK

Question: `CC(C)N1CCN(C(=O)c2ccc3c(c2)cc(C(=O)N2CCN(S(C)(=O)=O)CC2)n3-c2ccnc(Cl)c2)CC1` [Example 7, [1-(2-Chloro-pyridin-4-yl)-5-(4-isopropyl-piperazine-1-carbonyl)-1H-indol-2-yl]-(4-methanesulfonyl-piperazin-1-yl)-methanone] was tested. Which Ki did it give?
Answer: The Ki was 11.7 nM.

Question: For `CC(C)N1CCN(C(=O)c2ccc3c(c2)cc(C(=O)N2CCN(S(=O)(=O)c4ccccc4)CC2)n3-c2ccnc(Cl)c2)CC1` [Example 17, (4-Benzenesulfonyl-piperazin-1-yl)-[1-(2-chloro-pyridin-4-yl)-5-(4-isopropyl-piperazine-1-carbonyl)-1H-indol-2-yl]-methanone], which Ki is on record?
Answer: The Ki was 5.7 nM.

Question: With `CC(C)N1CCN(C(=O)c2ccc3c(c2)cc(C(=O)N2CCN(C(=O)N4CCCCC4)CC2)n3-c2ccnc(Cl)c2)CC1` [Example 19, [1-(2-Chloro-pyridin-4-yl)-5-(4-isopropyl-piperazine-1-carbonyl)-1H-indol-2-yl]-[4-(piperidine-1-carbonyl)-piperazin-1-yl]-methanone] as the compound, how does the Ki read?
Answer: The Ki was 7.5 nM.
